Measured values: paper PMC8746705, “Comparison of Experimental Strategies to Study L-Type Amino Acid Transporter 1 (LAT1) Utilization by Ligands” (Molecules, 2021)
Each block holds one molecule with its values, some of them ahead of it.

Columns and labels:
[1] = target: T1, LAT1 (Mus musculus, UniProt Q9Z127); assay: Cis-inhibition of radiolabelled LAT1-probe substrate uptake into BV2 cells; format: cell-based; details: for IC50: 5 min, mean ± SD; for Inhibition of LAT1-probe substrate uptake / LAT1 affinity: over all probe substrates
T1 sequence (Q9Z127 whole entry): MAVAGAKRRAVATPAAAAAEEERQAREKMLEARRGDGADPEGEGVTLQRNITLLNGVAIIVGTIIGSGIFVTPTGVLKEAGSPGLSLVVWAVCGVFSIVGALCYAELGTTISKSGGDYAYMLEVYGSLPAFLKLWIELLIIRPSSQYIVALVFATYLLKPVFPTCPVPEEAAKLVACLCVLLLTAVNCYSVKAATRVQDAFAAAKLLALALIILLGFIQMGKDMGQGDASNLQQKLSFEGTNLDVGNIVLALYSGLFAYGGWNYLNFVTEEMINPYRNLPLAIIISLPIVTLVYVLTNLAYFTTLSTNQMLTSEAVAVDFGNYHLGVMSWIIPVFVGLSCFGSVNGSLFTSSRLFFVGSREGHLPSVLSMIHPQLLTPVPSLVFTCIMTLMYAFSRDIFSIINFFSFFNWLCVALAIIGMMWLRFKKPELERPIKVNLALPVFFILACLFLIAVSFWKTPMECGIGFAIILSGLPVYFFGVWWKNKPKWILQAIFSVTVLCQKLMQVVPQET
T1 sequence (P10852 whole entry partner): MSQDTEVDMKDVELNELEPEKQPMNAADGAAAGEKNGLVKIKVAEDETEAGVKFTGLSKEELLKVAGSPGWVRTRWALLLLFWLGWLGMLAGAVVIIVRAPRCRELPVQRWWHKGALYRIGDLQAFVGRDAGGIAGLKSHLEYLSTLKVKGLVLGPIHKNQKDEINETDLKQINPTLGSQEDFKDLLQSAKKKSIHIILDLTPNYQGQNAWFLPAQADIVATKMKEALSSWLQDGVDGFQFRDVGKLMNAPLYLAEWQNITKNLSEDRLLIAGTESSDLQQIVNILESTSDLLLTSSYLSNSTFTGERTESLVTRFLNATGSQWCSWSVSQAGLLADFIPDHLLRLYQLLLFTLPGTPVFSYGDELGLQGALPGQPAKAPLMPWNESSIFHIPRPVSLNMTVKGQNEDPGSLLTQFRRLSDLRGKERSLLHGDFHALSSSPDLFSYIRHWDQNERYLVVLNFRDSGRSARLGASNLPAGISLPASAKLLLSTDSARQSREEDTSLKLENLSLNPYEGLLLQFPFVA
Procedure, shortened: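 Mouse BV2 cells preincubated 10 min at 37 °C in choline-based HBSS pH 7.4, then 5 min uptake of [14C]-L-leucine (0.2 µCi/mL) or [3H]-methionine, -tryptophan or -kynurenine (2 µCi/mL) with 0.1–1000 μM compound. Cell radioactivity counted by liquid scintillation after lysis. IC50 by nonlinear regression.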

[2] = target: T1, LAT1; assay: Inhibition type of [14C]-L-Leu uptake (Hanes-Woolf plots) in BV2 cells; format: cell-based; details: for Vmax of [14C]-L-Leu uptake: 0.010–0.20 µM [14C]-L-Leu in the presence of the compound at its IC50, mean ± SD, n = 3–4; for Vmax of [14C]-L-Leu uptake / Inhibition Type: BV2; for IC50: Table 2, compound concentration used in the inhibition type study, corresponding to IC50 of [14C]-L-Leu uptake; for Inhibition Type: of [14C]-L-Leu uptake, concluded from Km and Vmax
Procedure, shortened: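 BV2 cells preincubated 10 min at 37 °C in Na+-free choline HBSS (pH 7.4), then exposed to 0.010–0.20 μM [14C]-L-leucine plus compound at IC50-guided concentration; uptake counted by liquid scintillation. Km and Vmax derived by linear regression of Hanes-Woolf plots ([S]/v vs substrate).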

[3] = target: T1, LAT1; assay: Cellular uptake of compounds in the presence of LAT1-inhibitor (KMH-233); format: cell-based; details: 100 µM compound, 100 µM KMH-233, 30 min, BV2
Procedure, shortened: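 Cells were pre-exposed 10 min to 100 µM KMH-233, then incubated 30 min in HBSS with 100 µM compound plus inhibitor. Intracellular compound was quantified by LC-MS against a spiked standard curve and normalised to protein.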

[4] = tested on: Transport Type 2; assay: Concentration-dependent cellular uptake into BV2 cells, Eadie–Hofstee analysis, Transport Type 2; format: cell-based, mouse; details: 1–200 µM, 30 min, mean ± SD, n = 3
Method: For the concentration-dependent cellular uptake experiments, the BV2 cells on 24-well plates were incubated with studied compounds (1–200 μM) in pre-warmed HBSS buffer (250 μL) at 37 °C for 30 min. The experiment was then carried out as described for the time-dependent uptake above and the concentration of studied compounds in the cell lysate was analyzed by the LC-MS/MS methods described above and the results were normalized to the total protein concentration. The distinct transport mechanisms were separated from the Michaelis-Menten kinetics by using Eadie–Hofstee plot.
The studied compounds (1–15) were analyzed by using Agilent 1200 Series Rapid Resolution LC System together with an Agilent 6410 Triple Quadrupole Mass Spectrometer equipped with an electrospray ionization source (Agilent Technologies, Santa Clara, CA, USA). The chromatographic separations of analytes were achieved by using a reversed-phase Zobrax SB-C18 column (50 mm × 2.1 mm, 1.8 μm; Agilent Technologies, Santa Clara, CA, USA) by eluting the samples with 0.1% formic acid in water (A) and 0.1% formic in ACN (B). Labetalol and diclofenac were used as internal standards (ISTD) for the prodrugs and parent drugs, respectively. The transitions used for the quantification at the positive ion mode and chromatographic conditions of each compound and their parent drugs are listed in Table S1. The methods of compounds 1–11 have been reported earlier, while the methods of compounds 12–15 are reported herein for the first time.

[5] = tested on: immortalized mouse microglia (BV2); assay: Time-dependent cellular uptake of compounds into BV2 cells (LC-MS/MS); format: cell-based; details: for Max. cellular uptake: 100 µM compound, 1–60 min, mean ± SD, n = 3
Procedure, shortened: (§1)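 BV2 cells were incubated with 100 μM compound in HBSS at 37 °C for 1–60 min, washed ice-cold and lysed in 0.1 M NaOH. Intracellular compound was quantified by positive-mode ESI LC-MS/MS against internal-standard calibration curves and normalised to Bradford protein content.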

[6] = as above; format: cell-based, mouse; details: mouse, BV2 microglia cells, 100 µM compound, 1–60 min, mean ± SD, n = 3, read-out: T½ of cellular uptake
Procedure, shortened: as §1

[7] = target: T1, LAT1; assay: Concentration-dependent cellular uptake into BV2 cells, Eadie–Hofstee analysis, Transport Type 1 (LAT1); format: cell-based; details: for Km / Transport Type 1 (LAT1) Vmax: 1–200 µM, 30 min, BV2, Eadie–Hofstee, mean ± SD, n = 3; for Cellular uptake: BV2 cells
Procedure, shortened: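 Mouse BV2 microglia incubated 30 min at 37 °C in HBSS with compounds at 1–200 μM. Intracellular compound quantified by LC-MS/MS (positive ESI, C18 column) and normalized to total protein. Transport components resolved from Michaelis-Menten kinetics by Eadie–Hofstee analysis.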

[8] = probe [3H]-L-Kynu, n = 3–4, read-out: IC50 of [3H]-L-Kynu uptake
[9] = probe [3H]-L-Met, n = 3–4, read-out: IC50 of [3H]-L-Met uptake
[10] = probe [3H]-L-Trp, n = 3–4, read-out: IC50 of [3H]-L-Trp uptake
[11] = probe [14C]-L-Leu, n = 3–4, read-out: IC50 of [14C]-L-Leu uptake

SMILES: C[C@H](C(=O)Oc1cccc(C[C@H](N)C(=O)O)c1)c1cccc(C(=O)c2ccccc2)c1 [Compound 4]
IC50 [1, 8]: 35.3 ± 1.2 µM
IC50 [1, 9]: 26.1 ± 1.4 µM
IC50 [1, 10]: 38.8 ± 3.1 µM
IC50 [1, 11]: 15 ± 1.3 µM
Vmax of [14C]-L-Leu uptake [2]: 1.599 ± 0.170 nmol/min/mg
IC50 [2]: 15 µM
Inhibition Type [2]: Non-competitive
Cellular uptake in the presence of LAT1-inhibitor [3]: inhibited significantly
Km [4]: 159 ± 45 µM
Transport Type 2 Vmax [4]: 231 ± 40 pmol/mg/min
Max. cellular uptake [5]: 4.17 ± 0.19 nmol/mg of protein
half-life at 100 μM [6]: 1.86 ± 0.42 min
Km [7]: 41 ± 6 µM
Transport Type 1 (LAT1) Vmax [7]: 88 ± 9 pmol/mg/min
Cellular uptake [7]: effectively transported into the cells

SMILES: COc1cc(C=CC(=O)NCc2cccc(CC(N)C(=O)O)c2)ccc1O (stereo not shown) [Compound 5]
Inhibition of LAT1-probe substrate uptake / LAT1 affinity [1]: not able to inhibit the LAT1-probe substrate uptake very effectively
IC50 [1, 8]: 43.3 ± 1.1 µM
IC50 [1, 9]: > 100 µM
IC50 [1, 10]: > 100 µM
IC50 [1, 11]: > 100 µM
Vmax of [14C]-L-Leu uptake [2]: 1.910 ± 0.057 nmol/min/mg
Inhibition Type [2]: Un-competitive
Cellular uptake in the presence of LAT1-inhibitor [3]: only reductive trends were seen
Km [4]: 77 ± 13 µM
Transport Type 2 Vmax [4]: 0.27 ± 0.02 pmol/mg/min
Max. cellular uptake [5]: cannot be calculated
LAT1-substrate or LAT1-binder ([5]; concluded from time-dependent uptake, 100 µM): LAT1-binders rather than substrates
half-life at 100 μM [6]: < 1 min
Km [7]: 2.1 ± 0.4 µM
Transport Type 1 (LAT1) Vmax [7]: 0.11 ± 0.01 pmol/mg/min

SMILES: COc1cc(/C=C/C(=O)Oc2cccc(C[C@H](N)C(=O)O)c2)ccc1O [Compound 7]
IC50 [1, 8]: 96.8 ± 1.2 µM
IC50 [1, 9]: 13.6 ± 1.8 µM
IC50 [1, 10]: 19.8 ± 1.3 µM
IC50 [1, 11]: 37.6 ± 1.8 µM
Vmax of [14C]-L-Leu uptake [2]: 2.780 ± 0.126 nmol/min/mg
IC50 [2]: 38 µM
Inhibition Type [2]: Mixed type
Cellular uptake in the presence of LAT1-inhibitor [3]: inhibited significantly
Km [4]: 62 ± 14 µM
Transport Type 2 Vmax [4]: 0.21 ± 0.02 pmol/mg/min
Max. cellular uptake [5]: 21.14 ± 2.93 nmol/mg of protein
half-life at 100 μM [6]: 7.35 ± 3.44 min
Km [7]: 0.3 ± 0.1 µM
Transport Type 1 (LAT1) Vmax [7]: 0.09 ± 0.03 pmol/mg/min

SMILES: N[C@@H](Cc1cccc(NC(=O)c2ccccc2O)c1)C(=O)O [Compound 8]
Inhibition of LAT1-probe substrate uptake / LAT1 affinity [1]: not able to inhibit the LAT1-probe substrate uptake very effectively
IC50 [1, 8]: 18.1 ± 1.2 µM
IC50 [1, 9]: 12 ± 1.4 µM
IC50 [1, 10]: 24.5 ± 2 µM
Vmax of [14C]-L-Leu uptake [2]: 1.644 ± 0.073 nmol/min/mg
IC50 [2]: 19 µM
Inhibition Type [2]: Un-competitive
Cellular uptake in the presence of LAT1-inhibitor [3]: inhibited significantly
Km [4]: 41 ± 5 µM
Transport Type 2 Vmax [4]: 185 ± 10 pmol/mg/min
Max. cellular uptake [5]: 8.05 ± 0.40 nmol/mg of protein
half-life at 100 μM [6]: 2.65 ± 0.6 min

Now those with a lower IC50 [1, 8], led by results:

IC50 [1, 8]: 4.7 ± 1.2 µM
IC50 [1, 9]: 1.7 ± 1.8 µM
IC50 [1, 10]: 15.9 ± 7.8 µM
Vmax of [14C]-L-Leu uptake [2]: 2.422 ± 0.061 nmol/min/mg
IC50 [2]: 6 µM
Inhibition Type [2]: Non-competitive
Cellular uptake in the presence of LAT1-inhibitor [3]: inhibited significantly
half-life at 100 μM [6]: > 300 min
SMILES: C[C@H](C(=O)Nc1cccc(C[C@H](N)C(=O)O)c1)c1ccc(-c2ccccc2)c(F)c1 [Compound 9]
Max. cellular uptake [5]: 101.6 ± 86.1 nmol/mg of protein

IC50 [1, 8]: 4.3 ± 1.3 µM
IC50 [1, 9]: 3.3 ± 1.5 µM
IC50 [1, 10]: 9.9 ± 1.3 µM
IC50 [1, 11]: 2.8 ± 1.5 µM
Vmax of [14C]-L-Leu uptake [2]: 2.759 ± 0.066 nmol/min/mg
IC50 [2]: 3 µM
Inhibition Type [2]: Mixed type
Cellular uptake in the presence of LAT1-inhibitor [3]: inhibited significantly
half-life at 100 μM [6]: 1.97 ± 0.66 min
Km [7]: 0.8 ± 0.1 µM
Transport Type 1 (LAT1) Vmax [7]: 0.09 ± 0.01 pmol/mg/min
SMILES: C[C@H](C(=O)Nc1cccc(C[C@H](N)C(=O)O)c1)c1cccc(C(=O)c2ccccc2)c1 [Compound 2]
Km [4]: 199 ± 50 µM
Transport Type 2 Vmax [4]: 0.88 ± 0.16 pmol/mg/min
Max. cellular uptake [5]: 22.31 ± 1.34 nmol/mg of protein

IC50 [1, 8]: 3.1 ± 1.3 µM
IC50 [1, 9]: 25.3 ± 1.6 µM
IC50 [1, 10]: 11.1 ± 1.2 µM
Vmax of [14C]-L-Leu uptake [2]: 1.448 ± 0.099 nmol/min/mg
IC50 [2]: 10 µM
Inhibition Type [2]: Non-competitive
Cellular uptake in the presence of LAT1-inhibitor [3]: inhibited significantly
half-life at 100 μM [6]: 12.5 ± 3.62 min
Km [7]: 9.3 ± 2.7 µM
Transport Type 1 (LAT1) Vmax [7]: 280 ± 65 pmol/mg/min
Cellular uptake [7]: highest cellular uptake
SMILES: COc1ccc2cc([C@H](C)C(=O)Oc3cccc(C[C@H](N)C(=O)O)c3)ccc2c1 [Compound 15]
Max. cellular uptake [5]: 29.09 ± 2.84 nmol/mg of protein

IC50 [1, 8]: 3 ± 1.5 µM
IC50 [1, 9]: 4.3 ± 1.7 µM
IC50 [1, 10]: 6.3 ± 1.3 µM
Vmax of [14C]-L-Leu uptake [2]: 1.513 ± 0.218 nmol/min/mg
IC50 [2]: 4 µM
Inhibition Type [2]: Mixed type
Cellular uptake in the presence of LAT1-inhibitor [3]: inhibited significantly
half-life at 100 μM [6]: 19.2 ± 5.71 min
SMILES: C[C@H](C(=O)Oc1cccc(C[C@H](N)C(=O)O)c1)c1ccc(-c2ccccc2)c(F)c1 [Compound 12]
Max. cellular uptake [5]: 36.12 ± 4.17 nmol/mg of protein

IC50 [1, 8]: 0.7 ± 0.1 µM
IC50 [1, 9]: 8.2 ± 1.7 µM
IC50 [1, 10]: 6.7 ± 1.6 µM
IC50 [1, 11]: 6.8 ± 1.4 µM
Vmax of [14C]-L-Leu uptake [2]: 1.792 ± 0.106 nmol/min/mg
IC50 [2]: 7 µM
Inhibition Type [2]: Mixed type
Cellular uptake in the presence of LAT1-inhibitor [3]: inhibited significantly
half-life at 100 μM [6]: 9.11 ± 1.52 min
Km [7]: 116 ± 72 µM
Transport Type 1 (LAT1) Vmax [7]: 750 ± 435 pmol/mg/min
Cellular uptake [7]: highest cellular uptake
SMILES: NC(Cc1cccc(C(=O)Oc2ccc(-c3ccc(-c4ccc5c(c4)COC5=O)s3)cc2)c1)C(=O)O (stereo not shown) [Compound 1]
Km [4]: 347 ± 26 µM
Transport Type 2 Vmax [4]: 5067 ± 327 pmol/mg/min
Max. cellular uptake [5]: 176.0 ± 9.0 nmol/mg of protein
